Reference: paper PMC6116703, “Ethenesulfonyl fluoride derivatives as telomerase inhibitors: structure-based design, SAR, and anticancer evaluation in vitro” (Journal of Enzyme Inhibition and Medicinal Chemistry, 2018)
Where two headings read alike, the source gives them in different places.

What was measured:
[1] = test system: human melanoma cell A375; assay: Cell proliferation (MTT) assay, A375; type: cell-based
Experimental: (§1) The antiproliferative activities evaluation was conducted by using a modified procedure as described in the literature. Briefly, target tumour cells were grown to log phase in RPMI 1640 medium supplemented with 10% fetal bovine serum. After diluting to 3 × 10^4 cells mL^−1 with the complete medium, 100 µL of the obtained cell suspension was added to each well of 96-well culture plates. The subsequent incubation was performed at 37 °C, 5% CO2 atmosphere for 24 h before subjecting to antiproliferation assessment. The tested samples at pre-set concentrations were added to six wells with Doxorubicin (AMD) co-assayed as a positive reference. After 48 h of exposure period, 25 µL of PBS containing 2.5 mg·mL^−1 of MTT was added to each well. After 4 h, the medium was replaced by 150 µL DMSO to dissolve the purple formazan crystals produced. The absorbance at 570 nm of each well was measured using an ELISA plate reader. The data represented the mean of three experiments in triplicate and were expressed as means ± SD using Student’s test.

[2] = test system: human hepatoma cell SMMC-7721; assay: Cell proliferation (MTT) assay, SMMC-7721; type: cell-based; details: read-out: IC50 SMMC-7721
Experimental: as §1

[3] = test system: human breast cancer cell MDA-MB-231; assay: Cell proliferation (MTT) assay, MDA-MB-231; type: cell-based
Experimental: as §1

[4] = molecular target: T1, telomerase (Homo sapiens, UniProt O14746); assay: Telomerase activity TRAP-PCR-ELISA assay (A375 cell extract); type: biochemical; details: TRAP-PCR-ELISA, A375 cells, 24 h treatment
T1 construct: endogenous in cells; host or cells: A375 human melanoma cells
Experimental: Thirty-six compounds were tested in a search for inhibitors of telomerase activity using the TRAP-PCR-ELISA assay. In detail, the A375 cells were firstly maintained in RPMI 1640 buffer (Hyclone, Miami, FL), supplemented with 10% fetal bovineserum (GIBCO, New York, NY), streptomycin (0.1 mg/mL) and penicillin (100 IU/mL) at 37 °C in a humidified atmosphere containing 5% CO2. After trypsinisation, 5 × 10^4 cultured cells in logarithmic growth were seeded into T25 flasks (Corning, New York, NY) and cultured to allow to adherence. […] After 24 h treatment, the cells were harvested by cell scraper orderly followed by washing once with PBS. The cells were lysed in 150 µL RIPA cell lysis buffer (Santa Cruz, Santa Cruz, CA), and incubated on ice for 30 min. The cellular supernatants were obtained via centrifugation at 12,000g for 20 min at 4 °C and stored at –80 °C. The TRAP-PCR-ELISA assay was performed using a telomerase detection kit (Roche, Basel, Switzerland) according to the manufacturer’s protocol. In brief, 2 µL of cell extracts were mixed with 48 µL TRAP reaction mixtures. TRAP primers and Taq polymerase are incubated at 25 °C for 30 min. PCR was then initiated at 94 °C, 120 s for predenaturation and performed using 35 cycles each consisting of 94 °C for 30 s, 50 °C for 30 s, 72 °C for 90 s. Then 20 µL of PCR products were hybridised to a digoxigenin (DIG)-labelled telomeric repeat specific detection probe. And the PCR products were immobilised via the biotin-labelled primer to a streptavidin-coated microtiter plate subsequently. The immobilised DNA fragments were detected with a peroxidase-conjugated anti-DIG antibody and visualised following the addition of the stop regent. The microtitre plate was assessed on TECAN Infinite M200 microplate reader (Mannedorf, Switzerland) at a wavelength of 490 nm, and the final value were presented as mean ± SD[23].

[5] = test system: human gastric cancer cells MGC-803; assay: Cell proliferation (MTT) assay, MGC-803; type: cell-based; details: antiproliferative, MTT, 48 h exposure; read-out: IC50 MGC-803
Experimental: as §1

[6] = antiproliferative, MTT, 48 h exposure, read-out: IC50 A375
[7] = antiproliferative, MTT, 48 h exposure
[8] = antiproliferative, MTT, 48 h exposure, read-out: IC50 MDA-MB-231
[9] = IC50 inhibitory activity against telomerase
[10] = Homo sapiens, A-375, 48 h, read-out: IC50 A375, antiproliferative, MTT, 48 h exposure
[11] = Homo sapiens, MDA-MB-231, 48 h, read-out: IC50 MDA-MB-231, antiproliferative, MTT, 48 h exposure

T1 sequence (O14746 whole entry): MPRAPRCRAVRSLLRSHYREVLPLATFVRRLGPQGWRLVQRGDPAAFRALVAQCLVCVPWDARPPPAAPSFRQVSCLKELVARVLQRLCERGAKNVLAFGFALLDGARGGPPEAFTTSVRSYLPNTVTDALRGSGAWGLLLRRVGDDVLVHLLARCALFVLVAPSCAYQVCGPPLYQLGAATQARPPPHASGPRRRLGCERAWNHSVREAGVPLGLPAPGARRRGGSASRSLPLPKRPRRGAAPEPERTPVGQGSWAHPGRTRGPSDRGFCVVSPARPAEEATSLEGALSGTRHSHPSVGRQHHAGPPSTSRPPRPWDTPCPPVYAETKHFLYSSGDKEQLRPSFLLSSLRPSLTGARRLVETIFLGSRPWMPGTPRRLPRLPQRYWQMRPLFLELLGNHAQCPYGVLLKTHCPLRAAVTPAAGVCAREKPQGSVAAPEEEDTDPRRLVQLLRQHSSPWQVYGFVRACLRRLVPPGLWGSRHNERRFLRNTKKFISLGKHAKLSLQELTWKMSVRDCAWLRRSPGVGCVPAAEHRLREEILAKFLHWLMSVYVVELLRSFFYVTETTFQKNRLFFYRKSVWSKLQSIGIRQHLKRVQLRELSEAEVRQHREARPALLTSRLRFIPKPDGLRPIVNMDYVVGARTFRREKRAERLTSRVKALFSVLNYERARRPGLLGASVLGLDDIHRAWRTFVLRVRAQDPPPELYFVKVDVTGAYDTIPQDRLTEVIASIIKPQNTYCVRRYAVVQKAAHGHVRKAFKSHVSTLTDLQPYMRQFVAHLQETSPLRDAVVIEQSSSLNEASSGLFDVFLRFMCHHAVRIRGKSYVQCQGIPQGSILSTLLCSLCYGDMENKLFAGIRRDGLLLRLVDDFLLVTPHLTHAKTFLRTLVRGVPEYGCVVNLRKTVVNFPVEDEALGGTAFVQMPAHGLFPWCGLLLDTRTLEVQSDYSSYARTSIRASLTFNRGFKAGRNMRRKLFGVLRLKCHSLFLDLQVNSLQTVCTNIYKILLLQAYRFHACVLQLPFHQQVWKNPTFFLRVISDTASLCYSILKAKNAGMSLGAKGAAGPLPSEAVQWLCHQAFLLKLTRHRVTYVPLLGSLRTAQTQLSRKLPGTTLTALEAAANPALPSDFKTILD

| Structure (SMILES) | IC50 [1, 6] | IC50 [3, 8] | IC50 [4, 9] | IC50 [1, 10] | further results |
| --- | --- | --- | --- | --- | --- |
| O=Cc1ccc(/C=C/S(=O)(=O)F)o1 [Compound 37] | 9.09 ± 0.81 µM | 21.5 ± 1.29 µM |  |  | IC50 [2, 7]: 35.1 ± 0.49 µM |
| O=S(=O)(F)/C=C/c1cccc2c1oc1ccccc12 [Compound 38] | 40.8 ± 1.39 µM | 83.2 ± 2.91 µM |  |  |  |
| O=S(=O)(F)/C=C/c1cc2ccccc2o1 [Compound 39] |  |  | 48.8 ± 2.22 µM |  |  |
| O=S(=O)(F)/C=C/c1ccsc1 [Compound 41] | 14.6 ± 1.2 µM | 10.6 ± 0.46 µM |  |  | IC50 [2, 7]: 28.8 ± 0.75 µM |
| O=S(=O)(F)/C=C/c1cc2ccccc2s1 [Compound 42] |  |  |  |  | IC50 inhibitory activity against telomerase [4]: no |
| Cc1ccc(S(=O)(=O)n2cc(/C=C/S(=O)(=O)F)c3ccccc32)cc1 [Compound 44] |  |  | 15.2 ± 1.56 µM | 5.34 ± 0.3 µM | IC50 ([2]; Homo sapiens, SMMC-7721, 48 h): 9.24 ± 0.4 µM |
| Cc1ccc(S(=O)(=O)n2ccc3cc(/C=C/S(=O)(=O)F)ccc32)cc1 [Compound 45] |  |  |  | 8.61 ± 0.28 µM | IC50 ([2]; Homo sapiens, SMMC-7721, 48 h): 15.6 ± 0.78 µM |
| O=S(=O)(F)/C=C/c1cnn(-c2ccccc2)c1 [Compound 47] |  |  | 2.13 ± 0.6 µM | 9.04 ± 0.29 µM | IC50 ([2]; Homo sapiens, SMMC-7721, 48 h): 21.2 ± 0.49 µM; IC50 [3, 11]: 10.2 ± 0.44 µM |
| O=S(=O)(F)/C=C/C=C/c1ccc(Br)cc1 [Compound 51] | 42 ± 1.6 µM | 20.9 ± 1.09 µM |  |  | IC50 [2, 7]: 31.2 ± 1.33 µM |
| O=S(=O)(F)/C=C/C=C/c1ccc(C(F)(F)F)cc1 [Compound 52] | 13.3 ± 0.87 µM | 15.3 ± 0.82 µM |  |  | IC50 [2, 7]: 24.3 ± 1.19 µM |
| O=S(=O)(F)/C=C/C=C/c1ccccc1Cl [Compound 53] | 17.5 ± 0.98 µM | 28.5 ± 1.14 µM |  |  | IC50 [2, 7]: 57.3 ± 2.01 µM |
| O=S(=O)(F)/C=C/C=C/c1ccccc1C(F)(F)F [Compound 54] | 17.5 ± 1.52 µM | 28.5 ± 1.16 µM |  |  | IC50 [2, 7]: 19 ± 0.71 µM |
| O=S(=O)(F)/C=C/C=C/c1ccc2ccccc2c1 [Compound 55] |  |  | 47.2 ± 1.52 µM | 5.87 ± 0.2 µM | IC50 ([2]; Homo sapiens, SMMC-7721, 48 h): 34.1 ± 1.45 µM; IC50 [3, 11]: 14.3 ± 1.07 µM |
| O=C1C=C(/C=C/S(=O)(=O)F)CCC1 [Compound 58] |  |  |  |  | IC50 ([4]; read-out: IC50 inhibitory activity against telomerase): 39.9 ± 1.29 µM |
| O=S(=O)(F)/C=C/c1cc(F)nc(F)c1 [Compound 59] |  |  | 44.2 ± 2.26 µM | 58 ± 1.71 µM |  |
| O=Cc1cccc(/C=C/S(=O)(=O)F)c1 [Compound 60] | 10.7 ± 0.8 µM |  |  |  |  |
| O=C(O)c1ccc(/C=C/S(=O)(=O)F)cc1 [Compound 62] |  |  | 39.9 ± 1.4 µM | 45.1 ± 1.4 µM | IC50 [3, 11]: 86.2 ± 2.44 µM |
| O=S(=O)(F)/C=C/c1ccc(I)cc1 [Compound 63] |  |  | 45.3 ± 1.87 µM |  |  |
| CSc1ccc(/C=C/S(=O)(=O)F)cc1 [Compound 64] | 23.9 ± 1.37 µM | 38.3 ± 0.9 µM |  |  |  |
| Cc1ccc(/C=C/S(=O)(=O)F)cc1 [Compound 65] | 32.7 ± 1.22 µM | 30.5 ± 1.29 µM |  |  |  |
| O=S(=O)(F)/C=C/c1cc(C(F)(F)F)cc(C(F)(F)F)c1 [Compound 68] | 19.7 ± 1 µM | 21.2 ± 0.8 µM |  |  | IC50 [5]: 37.4 ± 1.35 µM |
| O=S(=O)(F)/C=C/c1ccccc1F [Compound 73] | 11.2 ± 0.81 µM | 25.6 ± 0.97 µM |  |  | IC50 [5]: 57.7 ± 1.44 µM |
| O=S(=O)(F)/C=C/c1ccccc1Cl [Compound 78] | 26.3 ± 2.35 µM | 35.2 ± 1.28 µM |  |  |  |
| O=S(=O)(F)/C=C/c1ccc(C(F)(F)F)nc1 [Compound 79] | 23 ± 1.75 µM |  |  |  |  |
| CS(=O)(=O)c1cccc(/C=C/S(=O)(=O)F)c1 [Compound 81] |  |  | 2.55 ± 0.4 µM | 7.89 ± 0.56 µM | IC50 ([2]; Homo sapiens, SMMC-7721, 48 h): 34.9 ± 1.7 µM; IC50 [3, 11]: 27.8 ± 1.32 µM |
| CC(C)S(=O)(=O)c1ccc(/C=C/S(=O)(=O)F)cc1 [Compound 82] |  |  | 37.9 ± 2.19 µM | 24.2 ± 0.6 µM | IC50 ([2]; Homo sapiens, SMMC-7721, 48 h): 8.95 ± 0.27 µM; IC50 [3, 11]: 28.7 ± 1.21 µM |
